Experiments:
NCI-60 cell lines = test: NCI-60 […] IC50 values, cell lines with rs1805407 vs wild type; format: cell-based; details: NCI60 IC50 values, C/T or C/C (n=23) vs T/T (n=37)
From the text: Given that TMZ damages the DNA and PARP1 has a critical role in DNA repair, one plausible hypothesis is that rs1805407 is either associated with increased PARP1 activity or decreased PARP1 trapping after treatment with alkylating agents (Murai J, et al. (2012) Cancer Res 72(21):5588-5599). The role of rs1805407 in cell response to various drugs was investigated. The NCI-60 […]™ database (Reinhold W C, et al. (2012) Cancer Res 72(14):3499-3511) contains the response of 60 cell lines to ˜50,000 compounds. It was evaluated whether drugs affect differentially the cell lines that have at least one copy of rs1805407 (C/T or C/C) vs wild type (T/T).
SNP imputation on TCGA samples and NCI-60 cell lines: NCI-60 data were obtained from Cell Miner in June 2013 (discover.nci_nih.gov/cellminer/). For those cell lines or TCGA samples for which the identity of SNP rs1805407 was not available we used imputation to infer its identity. Using SNAP (17) we found 51 SNPs to be in perfect linkage disequilibrium (LD) with rs1805407 (R^2=1). Of these, 9 variants were covered by the Affymetrix SNP Array 6.0 used by the TCGA. To determine the rs1805407 genotype in TCGA samples birdseed calls (Korn J M, et al. (2008) Nature genetics 40(10):1253-126) from Affymetrix Genome-Wide Human SNP Array 6.0 were used. Only samples with a birdseed confidence less than 0.1 or where all 9 SNPs in perfect LD agreed with the birdseed call were used.

[1] = test system: metastatic melanoma patients; test: Response to TMZ treatment in metastatic melanoma patients by rs1805407 genotype; format: in vivo, human; details: all 21 patients that had the SNP rs1805407 (C/T or C/C)
From the text: The melanoma dataset consisted of whole genome gene expression, microRNA expression, DNA methylation, and data from the selected SNP panel. MGM-Learn was used to learn a network over the top 1000 features most correlated (pairwise) with “response” to treatment clinical variable, a binary variable indicating response/no response to temozolomide (TMZ) treatment dichotomized at presence of a response or stability of disease at 4 months of therapy. The 1,000 most correlated features in the input dataset included 557 mRNA expression probes, 425 methylation probes, 14 miRNA probes and 4 SNPs. […] The largest interconnected output network included 20 features connected to the response variable in our initial (undirected) learned network (FIG. 2A). It was emphasized that these features were connected to the response variable not only because they have high pairwise correlation with it (FIG. 2B), but also because they are dependent on response even when conditioned on all other variables included in the input. In this sense, they represent direct (causal) interactions and not simple biomarkers. From the 20 features initially connected to response, 15 were left connected after causal filtering (FIG. 2A, black lines). […]
Melanoma study design: Using a retrospective cohort study design, 69 patients with metastatic melanoma who were treated with alkylator-based chemotherapy were evaluated. […]

A2780 = test: MTT cell proliferation assay, MMS alone or with ABT-888; format: cell-based; details: Homo sapiens, A2780 ovarian, PARP1/SNP C/T, MMS alone, 72 h, mean (±SD)
From the text: (§1) PARP1 cell proliferation and drug interaction assays: RPMI 1640 and Dulbecco's modified Eagle medium (DMEM) with L-Glutamine, cell culture media were purchased from Cellgro (Mediatech, Inc.). Heat-inactivated Foundation Fetal bovine serum (FBS) was purchased from Gemini bio-products. The alkylating agent, methyl methanesulfonate (MMS) was purchased from Sigma. The PARPi veliparib (ABT-888, Abbott Laboratories, Abbott Park, Ill., USA) was used in the cell proliferation assays. The ABT-888 used in the drug interaction assays was purchased from Selleck Chemicals LLC (Huston, Tex., USA). MMS is an alkylating agent that results in DNA damage at the same bases as dacarbazine and temozolomide and has been used extensively as an alternative in the laboratory setting. ABT-888 was dissolved in dimethyl sulfoxide (DMSO) to a stock solution of 10 mM. A 10 μM working solution was then prepared in PBS for subsequent serial dilutions.
(§2) The cytotoxic effect of the PARP inhibitor veliparib (ABT-888) and the alkylating agent, MMS was assessed using the MTT colorimetric dye reduction assay, according to the manufacturer's instructions (TACS® MTT Cell Proliferation Assay (MTT-CPA) from Trevigen, Inc.). MTT assay was used for each cell line to determine the half-maximal (50%) inhibitory concentration (IC50) values of MMS alone or in combination with ABT-888. Briefly, cells were seeded in triplicates in 96 wells at appropriate cell density (optimized for each individual cell line to have exponentially growing cells during the course of the assay), in their regular culture medium (DMEM with L-Glutamine from Cellgro (Mediatech, Inc.)). After 24 h, the medium was aspirated and the cells were incubated with increasing concentrations of MMS alone (0 to 1 mM) or in the presence of a fixed concentration (10 nM final) of ABT-888 (six replicates for each combination treatment) for 72 h at 37° C. Then, 10 μl of MTT Reagent was added to each well and the plates were incubated for another 4 h at 37° C. in the dark. In each well, 100 μl of Detergent Reagent was then added and incubated at 37° C. until complete solubilization of formazan crystals.
(§3) In single drug treatment experiments (MMS alone), drug-free controls containing 0.5% DMSO were included. In drug combination experiments with increasing concentrations of MMS, the samples with PARPi alone (fixed concentration of 10 nM of ABT-888), were used as controls. All control values were normalized to 100%. Cell viability was measured by reading the absorbance at 570 nm using a Tecan (Safire 2) microplate reader. Reading was converted to the percentage of the controls. The values obtained for each of the triplicates were averaged, and IC50 values were defined as the concentrations of drug(s) that inhibited growth by 50% relative to controls. The data from the MTT assay were expressed as mean IC50±standard deviation (SD). The IC50 of ABT-888, MMS and linear regression analysis were computed by […] Prism 5.0 program ([…] Software, Inc., San Diego, Calif.). For each cell line, the P-value was calculated using the Student t-test (two-tailed, paired) to compare the IC50 means of each treatment group (MMS alone or MMS+ABT-888).

FEMX = test: as above; format: cell-based; details: Homo sapiens, Fem-X, FEMX melanoma, PARP1/SNP T/T, MMS alone, 72 h, mean (±SD)
From the text: as §1, §2, §3

MDA-MB-231 = test: as above; format: cell-based; details: Homo sapiens, MDA-MB-231 breast, PARP1/SNP C/T, MMS alone, 72 h, mean (±SD)
From the text: as §1, §2, §3

MCF-7 = test: as above; format: cell-based; details: Homo sapiens, MCF7, MCF-7 breast, PARP1/SNP C/T, MMS alone, 72 h, mean (±SD)
From the text: as §1, §2, §3

A375 = test: as above; format: cell-based; details: Homo sapiens, A-375, A375 melanoma, PARP1/SNP T/T, MMS alone, 72 h, mean (±SD)
From the text: as §1, §2, §3

A549 = test: as above; format: cell-based; details: Homo sapiens, A549 lung, PARP1/SNP C/T, MMS alone, 72 h, mean (±SD)
From the text: as §1, §2, §3

H-522 = test: as above; format: cell-based; details: Homo sapiens, NCI-H522, H-522 lung, PARP1/SNP T/T, MMS alone, 72 h, mean (±SD)
From the text: as §1, §2, §3

SW620 = test: as above; format: cell-based; details: Homo sapiens, SW-620, SW620 colon, PARP1/SNP T/T, MMS alone, 72 h, mean (±SD)
From the text: as §1, §2, §3

M14 = test: as above; format: cell-based; details: Homo sapiens, M14 melanoma, PARP1/SNP C/T, MMS alone, 72 h, mean (±SD)
From the text: as §1, §2, §3

SMILES: O=C(c1cc(Cc2n[nH]c(=O)c3ccccc23)ccc1F)N1CCN(C(=O)C2CC2)CC1 [olaparib]
- resistance or sensitivity of cell lines with at least one allele of rs1805407 vs wild type (NCI-60 cell lines): slight increase in sensitivity

SMILES: O=NN(CCCl)C(=O)NCCCl [Carmustine]
- resistance or sensitivity of cell lines with at least one allele of rs1805407 vs wild type (NCI-60 cell lines): Increased resistance

SMILES: CC1=C(CO)C2=C(C)C3(CC3)[C@@](C)(O)C(=O)C2=C1 [Irofulven, Hydroxymethylacylfulvene]
- resistance or sensitivity of cell lines with at least one allele of rs1805407 vs wild type (NCI-60 cell lines): Increased sensitivity

SMILES: Cn1nnc2c(C(N)=O)ncn2c1=O [TMZ, temozolomide]
- response to TMZ treatment [1]: no response

SMILES: COS(C)(=O)=O [MMS, methyl methanesulfonate]
- IC50 (A2780): 190 µM
- IC50 (FEMX): 166 µM
- IC50 (MDA-MB-231): 260 µM
- IC50 (MCF-7): 193 µM
- IC50 (A375): 306 µM
- IC50 (A549): 255 µM
- IC50 (H-522): 578 µM
- IC50 (SW620): 299 µM
- IC50 (M14): 521 µM

SMILES: O=P1(N(CCCl)CCCl)NCCCO1 (centres unmarked) [Cyclophosphamide]
- resistance or sensitivity of cell lines with at least one allele of rs1805407 vs wild type (NCI-60 cell lines): Increased resistance

Source: patent US10260108B2, “PARP genomic variants conferring resistance and sensitization to chemotherapy under inhibition” (University of Pittsburgh—Of the Commonwealth System of …, priority 2014, dated 2019)
